Laboratory results from patent US8906685B2, “Hanging drop devices, systems and/or methods” (The Regents of The University of Michigan, priority 2010, dated 2014).

Tests used:
A431.H9 spheroids [1] = assay: time-lapse images of drug-treated spheroids in 384 hanging drop array plate; assay type: cell-based, human; settings: all 3 spheroid sizes, 96 hours; for spheroid size over the drug treatment period: 10 μM drug; for spheroid viability / integrity over the drug treatment period: 5000 μM drug
Procedure: (§1) According to the procedure mentioned above, A431.H9 spheroids at the specified cell numbers were formed, and their growth media were exchanged every other day. TPZ and 5-FU stock solutions of four times the final testing concentrations (0, 0.1, 1, 10, 100, 1000, 5000 μM) were initially prepared in Dulbecco's phosphate buffered saline (D-PBS) (Gibco 14190, Invitrogen). On day 2 of A431.H9 spheroid culture, 5 μl of the appropriate concentration of TPZ (or 5-FU) stock solutions was subsequently added to each of the 15 μl A431.H9 cell hanging drop droplets. Cellular viability was monitored at 24, 48, 72, and 96 hours of drug incubation using alamarBlue (Invitrogen). Following manufacturer's protocol, 2 μl (one-tenth of each hanging drop sample volume) of alamarBlue was added to each A431.H9 hanging drop spheroid sample and incubated for 2 hours. Following incubation, each A431.H9 hanging drop spheroid sample plate was read using a plate reader (FLx800 Fluorescence Microplate Reader, Biotek) at 525 nm excitation and 590 nm emission to obtain fluorescence intensity readout. As the fluorescence intensity of alamarBlue is directly proportional to cell number, the average percent cell viability for each drug concentration can be calculated easily by normalizing to the 0 μM untreated spheroid control. Anti-cancer drug sensitivity experiments under 2D control conditions were performed in standard tissue culture treated 96-well plates (Corning Costar 3596), with everything else being the same as the 3D spheroid experiments. 50% of culture media was replaced by fresh media every other day.
FIGS. 3a-c show the time-lapse images of A431.H9 spheroids treated with TPZ at 0, 10, and 5000 μM for 3 different spheroid sizes (300, 1500, and 7500-cell spheroids). The control untreated A431.H9 spheroids at all 3 sizes still grow and proliferate properly over the duration of drug treatment. […] The IC50 of A431.H9 cells cultured in conventional 2D condition is about 50 μM, while the IC50 of the A431.H9 3D spheroids for all 3 sizes is about 8 μM. Contrary to most anti-cancer drugs, A431.H9 cells treated with TPZ are more resistant when cultured under 2D conditions rather than 3D conditions.
Similarly, FIGS. 4a-c show the time-lapse images of A431.H9 spheroids treated with 5-FU at 0, 10, and 5000 μM for 3 different spheroid sizes (300, 1500, and 7500-cell spheroids). Again, the control untreated A431.H9 spheroids at all 3 sizes all look healthy and still proliferate properly over the duration of drug treatment. […] By 96 hours after drug treatment, significant portions of cells had already dissociated from the A431.H9 spheroids, indicating drug cytotoxicity. […]

A431.H9 spheroids [2] = assay: anti-cancer drug sensitivity testing, 3D spheroids in 384 hanging drop array plate, alamarBlue cell viability; assay type: cell-based; settings: Homo sapiens
Procedure: To investigate the stability of long-term hanging drop spheroid culture using the designed array plate, osmolality measurements were performed while culturing three types of cells: kidney fibroblast cell (COS7), murine embryonic stem (mES) cell (ES-D3), and a human carcinoma cell that stably express mesothelin (A431.H9). Prior to performing hanging drop culture using the plate, ES-D3 cells were cultured in dishes coated with 0.1% w/v porcine gel (Sigma-Aldrich) and maintained in medium consisting of Dulbecco's Modified Eagle's Medium (DMEM) (Gibco 11960, Invitrogen) with 15% v/v fetal bovine serum (FBS) (Gibco 10082, Invitrogen), 4 mM L-glutamin (Invitrogen), 0.1 mM 2-mercapto-ethanol (Sigma-Aldrich), 0.02% v/v sodium pyruvate (Sigma-Aldrich), 100 U ml^−1 penicillin (Invitrogen), 100 U ml^−1 streptomycin (Invitrogen), and 1000 U ml^−1 ESGRO (Invitrogen) which contains leukemia inhibitory factor (LIF). COS7 and A431.H9 cells were cultured in DMEM (Gibco 11965, Invitrogen) with 10% v/v FBS (Gibco 10082, Invitrogen), and 1% v/v antibiotic-antimicotic (Gibco 15240, Invitrogen). All the cells were cultured in a humidified incubator (37° C. in an atmosphere of 5% CO^2). Cell suspensions for the hanging drop experiments were made by dissociating cells with 0.25% trypsin-EDTA (Gibco 25200, Invitrogen), centrifugation of dissociated cells at 1000 rpm for 1 min at room temperature, and re-suspended in growth media. Cell density was estimated using a hemocytometer.
On the spheroid culture plate, a 15 μl cell suspension was dispensed into the access hole at each cell culture site to form a hanging drop. In order to prevent evaporation, 4 ml of distilled water was added into the peripheral water reservoir. In addition, the plate was sandwiched by a well-plate lid and a 96-well plate filled with distilled water, and wrapped using a Parafilm. The growth media was exchanged every other day by taking 5 μl solution from a drop, and adding 7 μl fresh growth media into a drop. For the osmolality measurement, 10 μl sample solution was pipetted out from a drop and transferred to a vapor pressure osmometer (Vapro Model 5520, Wesco, Inc.) for analysis.
as §1, with “Anti-cancer drug sensitivity experiments under 2D control conditions were performed in standard tissue culture treated 96-well plates (Corning Costar 3596), with everything else being the same as the 3D spheroid experiments. 50% of culture media was replaced by fresh media every other day.” left out

A431.H9 cells = assay: anti-cancer drug sensitivity testing, conventional 2D culture in 96-well plates, alamarBlue cell viability; assay type: cell-based; settings: Homo sapiens, % cell viability 96 hours after drug treatment, read-out: IC50 of A431.H9 cells cultured in conventional 2D condition
Procedure: To investigate the stability of long-term hanging drop spheroid culture using the designed array plate, osmolality measurements were performed while culturing three types of cells: kidney fibroblast cell (COS7), murine embryonic stem (mES) cell (ES-D3), and a human carcinoma cell that stably express mesothelin (A431.H9). […]
According to the procedure mentioned above, A431.H9 spheroids at the specified cell numbers were formed, and their growth media were exchanged every other day. […] Cellular viability was monitored at 24, 48, 72, and 96 hours of drug incubation using alamarBlue (Invitrogen). […] Following incubation, each A431.H9 hanging drop spheroid sample plate was read using a plate reader (FLx800 Fluorescence Microplate Reader, Biotek) at 525 nm excitation and 590 nm emission to obtain fluorescence intensity readout. As the fluorescence intensity of alamarBlue is directly proportional to cell number, the average percent cell viability for each drug concentration can be calculated easily by normalizing to the 0 μM untreated spheroid control. […]

[3] = ALL3, 96 h, 3D condition, all 3 spheroid sizes (300, 1500, 7500-cell), 96 hours after drug treatment

IC50 (A431.H9 spheroids [2]; [3])	IC50 (A431.H9 cells)	IC50 (A431.H9 spheroids [2]; 96 h, 300-cell spheroids, 96 hours after treatment)	IC50 (A431.H9 spheroids [2]; 96 h, 1500-cell spheroids, 96 hours after treatment)	IC50 (A431.H9 spheroids [2]; 96 h, 7500-cell spheroids, 96 hours after treatment)	Compound	spheroid size over the drug treatment period (A431.H9 spheroids [1])	spheroid viability / integrity over the drug treatment period (A431.H9 spheroids [1])
~8 µM	~50 µM	–	–	–	Nc1n[n+]([O-])c2ccccc2[n+]1[O-] [TPZ, tirapazamine]	stayed relatively constant	poor viability
1 to 100 µM	~0.1 µM	~3 µM	~1 µM	~90 µM	O=c1[nH]cc(F)c(=O)[nH]1 [5-FU, 5-fluorouracil]	slowly become smaller	spheroid integrity was greatly compromised
